# Where two headings read alike, the source gives them in different places.
# Assay: Study MPKF: plasma pharmacokinetics of MDMA and MDA, single 120 mg MDMA·HCl, fasted/fed
# Format: in vivo, human
# Conditions: for Tmax: median
# From the text: The MPKF was a Phase 1, open-label, randomized sequence, multi-dose, 2-period crossover food effect study in 16 healthy individuals. The MPKF study evaluated plasma concentrations of both MDMA and the active metabolite 3,4-methylenedioxyamphetamine (MDA). Summary PK Parameters of the preliminary data was based on interim analysis are presented in Table 12 Table 12 Table 12, and Table 13 Table 13 Table 13 for MDMA and MDA, respectively.
# Participants were randomized to receive 1 of 2 conditions before the other: • Fasted Treatment: at least 10 hours of fasting followed by administration of MDMA HCl with 240 mL water. • Fed Treatment: at least 10 hours of fasting followed by a high-fat (approximately 50% of total caloric content of the meal) and high-calorie (approximately 800 to 1000 calories) meal was consumed within 30 minutes prior to IMP administration.
# Participants remained at the clinical research unit (CRU) for each Dosing Session from the time of check-in on the night before dosing until discharge 48 hours after dosing for collection of serial blood samples for PK analysis and safety monitoring. IMP was administered on Day 1 following the treatment sequence to which the participant was randomized. An additional outpatient visit occurred 72 hours after dosing to collect a final PK sample, commensurate with the expected PK profiles of MDMA and MDA. Safety assessments were also performed at this visit.
# The washout period between Dosing Sessions was at least 14 days. If a participant experienced emesis within 4 hours of administration, they were to be withdrawn from the study and replaced with a new participant. An End of Study Visit was performed 2 to 10 days after the completion of the final Dosing Session 72-hour follow-up. An informal interim analysis was planned to be conducted after at least 5 participants completed at least 1 Dosing Session to examine PK variability.
# The API was a white crystalline powder of pharmaceutical quality, made according to current Good Manufacturing Practices (cGMP) for human use.
# Participants: Sixteen healthy individuals were recruited for the study.
# Intervention: The study was conducted as a Phase 1, open-label, randomized sequence, multi-dose, 2-period crossover food effect study. Each participant received multiple doses of MDMA, and plasma concentrations of both MDMA and the active metabolite MDA were measured.
# Sample Collection: Blood samples were collected at various time points up to 72 hours after dosing. The samples were analyzed using validated liquid chromatography-tandem mass spectrometry (LC-MS/MS) methods.
# Data Analysis: The summary PK parameters were presented in Table 12 for MDMA and Table 13 for MDA. The data were analyzed using descriptive statistics, and the mean and standard deviation were calculated. The results were compared between the two periods and analyzed for food effects. Statistical analyses were performed using appropriate methods, such as analysis of variance (ANOVA) and paired t-tests. A p-value of less than 0.05 was considered statistically significant.
# [1] = Fasted (N = 15), 120 mg MDMA·HCl, geometric mean
# [2] = Fed (N = 14), 120 mg MDMA·HCl, geometric mean
structure (smiles),measurement,setting,value
"CC(N)Cc1ccc2c(c1)OCO2 (centres unmarked) [MDA, 3,4-methylenedioxyamphetamine]",higher plasma PK values in intermediate relative to normal CYP2D6 metabolizers,"8 intermediate, 8 normal metabolizers",approximately 13%
same,"Cmax, Geometric LSM",Fasted,12.39 ng/mL
same,CL/F,[1],302.8 L/h
same,Cmax,[1],12 ng/mL
same,Tlag,[1],0.6 h
same,Tmax,"Fasted (N = 15), 120 mg MDMA·HCl",6 h
same,"Cmax, Geometric LSM",Fed,11.92 ng/mL
same,CL/F,[2],270.7 L/h
same,Cmax,[2],12 ng/mL
same,Tlag,[2],0.7 h
same,Tmax,"Fed (N = 14), 120 mg MDMA·HCl",7 h
same,Cmax,"both sexes, human, plasma, po, single 120 mg dose of MDMA·HCl, fasting healthy males and females, read-out: Cmax",13.3 ng/mL
same,"AUC0-72, Geometric Mean Ratio",fed vs fasted,0.98
same,"AUC0-inf, Geometric Mean Ratio",fed vs fasted,0.99
same,"AUC0-t, Geometric Mean Ratio",fed vs fasted,0.90
same,"Cmax, Geometric Mean Ratio",fed vs fasted,0.96
same,effect of food on exposure,"high-fat meal vs fasting, single 120 mg MDMA·HCl",not affected by food
same,AUC0-inf of MDA relative to MDMA,"human, plasma, oral, 120 mg",less than 10%
same,peak plasma levels of MDA relative to MDMA,"human, plasma, oral, 120 mg",less than 10%
same,AUC(0-t),"human, plasma, oral, 120 mg, Fasted, read-out: AUC0-72, Geometric LSM",312 ng·h/mL
same,AUC(0-inf),"human, plasma, oral, 120 mg, Fasted, read-out: AUC0-inf, Geometric LSM",331 ng·h/mL
same,AUC(0-t),"human, plasma, oral, 120 mg, Fasted, read-out: AUC0-t, Geometric LSM",282 ng·h/mL
same,AUC(0-t),"human, plasma, oral, 120 mg, Fed, read-out: AUC0-72, Geometric LSM",306 ng·h/mL
same,AUC(0-inf),"human, plasma, oral, 120 mg, Fed, read-out: AUC0-inf, Geometric LSM",328 ng·h/mL
same,AUC(0-t),"human, plasma, oral, 120 mg, Fed, read-out: AUC0-t, Geometric LSM",254 ng·h/mL
same,Vd/F,"human, plasma, po, 120 mg, Fasted (N = 15), 120 mg MDMA·HCl, geometric mean",5520 L
same,AUC(0-t),"human, plasma, po, 120 mg, Fasted (N = 15), 120 mg MDMA·HCl, geometric mean, read-out: AUC0-72",313 ng·h/mL
same,AUC(0-inf),"human, plasma, po, 120 mg, Fasted (N = 15), 120 mg MDMA·HCl, geometric mean, read-out: AUC0-inf",330 ng·h/mL
same,AUC(0-t),"human, plasma, po, 120 mg, Fasted (N = 15), 120 mg MDMA·HCl, geometric mean, read-out: AUC0-t",282 ng·h/mL
same,half-life,"human, plasma, po, 120 mg, Fasted (N = 15), 120 mg MDMA·HCl, geometric mean, read-out: T1/2 (converted)",12.6 h
same,Vd/F,"human, plasma, po, 120 mg, Fed (N = 14), 120 mg MDMA·HCl, geometric mean",5000 L
same,AUC(0-t),"human, plasma, po, 120 mg, Fed (N = 14), 120 mg MDMA·HCl, geometric mean, read-out: AUC0-72",322 ng·h/mL
same,AUC(0-inf),"human, plasma, po, 120 mg, Fed (N = 14), 120 mg MDMA·HCl, geometric mean, read-out: AUC0-inf",369 ng·h/mL
same,AUC(0-t),"human, plasma, po, 120 mg, Fed (N = 14), 120 mg MDMA·HCl, geometric mean, read-out: AUC0-t",255 ng·h/mL
same,half-life,"human, plasma, po, 120 mg, Fed (N = 14), 120 mg MDMA·HCl, geometric mean, read-out: T1/2 (converted)",12.8 h
same,AUC(0-inf),"human, plasma, po, 120 mg, single 120 mg dose of MDMA·HCl, fasting, read-out: AUC0-inf",374 ng·h/mL
same,half-life,"human, plasma, po, 120 mg, single 120 mg dose of MDMA·HCl, fasting, read-out: t1/2 (converted)",12.8 h
same,Tmax,"single 120 mg dose of MDMA·HCl, fasting",6 h
